Where two headings read alike, the source gives them in different places.
Columns and labels:
[1] = biological target: IDH1 R132H (Homo sapiens, UniProt O75874, R132H); assay: diaphorase/resazurin-coupled mIDH1 R132H enzyme assay; assay type: biochemical; conditions: for IC50: average of N = 3, reported only where ≥75% inhibition at 38 μM; for mIDH1 inhibitory activity: R132H and R132C mIDH1, Table 2 is an image; for fold improvement in potency compared to analog 70: mIDH1 R132H, relative to 70; for IDH1 R132H IC50 Fold improvement over 87: relative to compound 87
[2] = Parallel artificial membrane permeability assay; assay type: in vitro ADME; conditions: pH 7.4
[3] = biological target: IDH1 R132C (Homo sapiens, UniProt O75874, R132C); assay: diaphorase/resazurin-coupled mIDH1 R132C enzyme assay; assay type: biochemical; conditions: for IDH1 R132C IC50 Fold improvement over 87: relative to compound 87
IDH1 R132C, sequence (O75874 whole entry R132C): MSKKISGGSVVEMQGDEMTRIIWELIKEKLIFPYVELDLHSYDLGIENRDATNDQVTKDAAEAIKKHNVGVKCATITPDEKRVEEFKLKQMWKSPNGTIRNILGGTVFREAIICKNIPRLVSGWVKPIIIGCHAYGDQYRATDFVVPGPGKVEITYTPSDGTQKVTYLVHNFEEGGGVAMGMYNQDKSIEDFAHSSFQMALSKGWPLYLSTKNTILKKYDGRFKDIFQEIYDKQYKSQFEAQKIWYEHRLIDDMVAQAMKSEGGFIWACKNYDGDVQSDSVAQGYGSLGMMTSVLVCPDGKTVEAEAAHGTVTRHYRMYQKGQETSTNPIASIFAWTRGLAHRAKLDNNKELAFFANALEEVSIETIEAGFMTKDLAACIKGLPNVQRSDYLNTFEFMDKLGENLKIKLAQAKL

IDH1 R132H, sequence (O75874 whole entry R132H): as the sequence (O75874 whole entry R132C) above, with C132H counted along it

3-(4-(4-Chlorophenyl)thiazol-2-yl)-1-(2-ethyl-6-methylphenyl)-6-(2-methylprop-1-en-1-yl)-5-(piperazine-1-carbonyl)pyridin-2(1H)-one [Compound 115]
IC50 ([1]; read-out: IDH1 R132H IC50(μM) ± SD): 0.27 µM

CCc1ccc(OC)cc1-n1c(C=C(C)C)c(C(=O)N2CCNCC2)cc(-c2nc(-c3ccc(Cl)cc3)cs2)c1=O (mixture of isomers) [Compound 118, 3-(4-(4-Chlorophenyl)thiazol-2-yl)-1-(2-ethyl-5-methoxyphenyl)-6-(2-methylprop-1-en-1-yl)-5-(piperazine-1-carbonyl)pyridin-2(1H)-one]
PAMPA (10^−6 cm/s) [2]: 549 10^−6 cm/s

CCc1ccc(OC)cc1-n1c(C=C(C)C)c(C(=O)N2CCNCC2)cc(-c2nc(-c3ccc(Cl)cc3)cs2)c1=O (single isomer, unassigned) [(−)-118]
IC50 ([1]; IDH1 R132H IC50(μM) ± SD): 0.42 ± 0.05 µM

CCc1ccc(Cl)cc1-n1c(C=C(C)C)c(C(=O)N2CCNCC2)cc(-c2nc(-c3ccc(Cl)cc3)cs2)c1=O (single isomer, unassigned) [(−)-119]
IC50 ([1]; IDH1 R132H IC50(μM) ± SD): 0.25 ± 0.04 µM

COc1ccc(OC)c(-n2cccc(-c3nc(-c4ccc(Cl)cc4)cs3)c2=O)c1 [Compound 2, 3-(4-(4-Chlorophenyl)thiazol-2-yl)-1-(2,5-dimethoxyphenyl)pyridin-2(1H)-one]
mIDH1 inhibitory activity [1]: completely inactive

COc1ccc(OC)c(-n2c(C)ccc(-c3nc(-c4ccc(Cl)cc4)cs3)c2=O)c1 [Compound 3, 3-(4-(4-Chlorophenyl)thiazol-2-yl)-1-(2,5-dimethoxyphenyl)-6-methylpyridin-2(1H)-one]
mIDH1 inhibitory activity [1]: completely inactive

COc1ccc(OC)c(-n2c3c(cc(-c4nc(-c5ccccc5)cs4)c2=O)C(=O)CC(C)(C)C3)c1 [Compound 11, 1-(2,5-Dimethoxyphenyl)-7,7-dimethyl-3-(4-phenylthiazol-2-yl)-7,8-dihydroquinoline-2,5(1H,6H)-dione]
mIDH1 inhibitory activity [1]: essentially equipotent to 1 against R132H mIDH1

COc1ccc(OC)c(-n2c3c(cc(-c4cccc(-c5ccc(Cl)cc5)c4)c2=O)C(=O)CC(C)(C)C3)c1 [Compound 23, 3-(4’-Chloro-[1,1’-biphenyl]-3-yl)-1-(2,5-dimethoxyphenyl)-7,7-dimethyl-7,8-dihydroquinoline-2,5(1H,6H)-dione]
mIDH1 inhibitory activity [1]: complete loss in mIDH1 inhibitory activity

COc1ccc(OC)c(-n2c3c(cc(-c4ccc(-c5ccccc5)cc4)c2=O)C(=O)CC(C)(C)C3)c1 [Compound 24, 3-([1,1’-Biphenyl]-4-yl)-1-(2,5-dimethoxyphenyl)-7,7-dimethyl-7,8-dihydroquinoline-2,5(1H,6H)-dione]
mIDH1 inhibitory activity [1]: complete loss in mIDH1 inhibitory activity

COc1ccc(OC)c(-n2c3c(cc(-c4cccc(-c5ccc(Cl)cc5)n4)c2=O)C(=O)CC(C)(C)C3)c1 [Compound 25, 3-(6-(4-Chlorophenyl)pyridin-2-yl)-1-(2,5-dimethoxyphenyl)-7,7-dimethyl-7,8-dihydroquinoline-2,5(1H,6H)-dione]
mIDH1 inhibitory activity [1]: retained some activity

CCOc1ccccc1-n1c2c(cc(-c3nc(-c4ccc(Cl)cc4)cs3)c1=O)C(=O)CC(C)(C)C2 [Compound 29, 3-(4-(4-Chlorophenyl)thiazol-2-yl)-1-(2-ethoxyphenyl)-7,7-dimethyl-7,8-dihydroquinoline-2,5(1H,6H)-dione]
IC50 ([1]; IDH1 R132H IC50(μM) ± SD): 0.51 ± 0.03 µM

CC(c1ccccc1)n1c2c(cc(-c3nc(-c4ccc(Cl)cc4)cs3)c1=O)C(=O)CC(C)(C)C2 (stereo not drawn) [Compound 48, 3-(4-(4-Chlorophenyl)thiazol-2-yl)-7,7-dimethyl-1-(1-phenylethyl)-7,8-dihydroquinoline-2,5(1H,6H)-dione]
IC50 ([1]; IDH1 R132H IC50(μM) ± SD): > 38 µM | inhibition at 38 µM ([3]; read-out: IDH1 R132C % inhibition ± SD at 38 μM): 34 ± 1%

COc1cc(C(=O)O)ccc1-n1c2c(cc(-c3nc(-c4ccc(Cl)cc4)cs3)c1=O)C(=O)CC(C)(C)C2 [Compound 57, 4-(3-(4-(4-Chlorophenyl)thiazol-2-yl)-7,7-dimethyl-2,5-dioxo-5,6,7,8-tetrahydroquinolin-1(2H)-yl)-3-methoxybenzoic acid]
IC50 ([1]; IDH1 R132H IC50(μM) ± SD): > 38 µM

CCc1cccc(CC)c1-n1c(C)c(C(=O)NCCO)cc(-c2nc(-c3ccc(Cl)cc3)cs2)c1=O [Compound 75, 5-(4-(4-Chlorophenyl)thiazol-2-yl)-1-(2,6-diethylphenyl)-N-(2-hydroxyethyl)-2-methyl-6-oxo-1,6-dihydropyridine-3-carboxamide]
fold improvement in potency compared to analog 70 [1]: 3 fold

CCc1cccc(CC)c1-n1c(C)c(C(=O)NCCN)cc(-c2nc(-c3ccc(Cl)cc3)cs2)c1=O [Compound 78, N-(2-Aminoethyl)-5-(4-(4-chlorophenyl)thiazol-2-yl)-1-(2,6-diethylphenyl)-2-methyl-6-oxo-1,6-dihydropyridine-3-carboxamide]
fold improvement in potency compared to analog 70 [1]: 3 fold

CCCc1c(C(=O)N2CCNCC2)cc(-c2nc(-c3ccc(Cl)cc3)cs2)c(=O)n1-c1c(CC)cccc1CC [Compound 89, 3-(4-(4-Chlorophenyl)thiazol-2-yl)-1-(2,6-diethylphenyl)-5-(piperazine-1-carbonyl)-6-propylpyridin-2(1H)-one]
IDH1 R132H IC50 Fold improvement over 87 [1]: 2.8 fold | PAMPA (10^−6 cm/s) [2]: 134 10^−6 cm/s | IDH1 R132C IC50 Fold improvement over 87 [3]: 15 fold

CCc1cccc(CC)c1-n1c(CC(C)C)c(C(=O)N2CCNCC2)cc(-c2nc(-c3ccc(Cl)cc3)cs2)c1=O [Compound 91, 3-(4-(4-Chlorophenyl)thiazol-2-yl)-1-(2,6-diethylphenyl)-6-isobutyl-5-(piperazine-1-carbonyl)pyridin-2(1H)-one]
IDH1 R132H IC50 Fold improvement over 87 [1]: 1.9 fold | PAMPA (10^−6 cm/s) [2]: 16 10^−6 cm/s | IDH1 R132C IC50 Fold improvement over 87 [3]: 13 fold

CCc1cccc(CC)c1-n1c(C=C(C)C)c(C(=O)N2CCNCC2)cc(-c2nc(-c3ccc(Cl)cc3)cs2)c1=O [Compound 92, 3-(4-(4-Chlorophenyl)thiazol-2-yl)-1-(2,6-diethylphenyl)-6-(2-methylprop-1-en-1-yl)-5-(piperazine-1-carbonyl)pyridin-2(1H)-one]
IDH1 R132H IC50 Fold improvement over 87 [1]: 4.8 fold | PAMPA (10^−6 cm/s) [2]: 225 10^−6 cm/s | IDH1 R132C IC50 Fold improvement over 87 [3]: 26 fold

CCc1cccc(CC)c1-n1c(CC2CC2)c(C(=O)N2CCNCC2)cc(-c2nc(-c3ccc(Cl)cc3)cs2)c1=O [Compound 93, 3-(4-(4-Chlorophenyl)thiazol-2-yl)-6-(cyclopropylmethyl)-1-(2,6-diethylphenyl)-5-(piperazine-1-carbonyl)pyridin-2(1H)-one]
IDH1 R132H IC50 Fold improvement over 87 [1]: 3.8 fold | PAMPA (10^−6 cm/s) [2]: 43 10^−6 cm/s | IDH1 R132C IC50 Fold improvement over 87 [3]: 31 fold

CCc1cccc(CC)c1-n1c(CC2CCNC2)c(C(=O)N2CCNCC2)cc(-c2nc(-c3ccc(Cl)cc3)cs2)c1=O (stereo not drawn) [Compound 98, 3-(4-(4-Chlorophenyl)thiazol-2-yl)-1-(2,6-diethylphenyl)-5-(piperazine-1-carbonyl)-6-(pyrrolidin-3-ylmethyl)pyridin-2(1H)-one]
IDH1 R132H IC50 Fold improvement over 87 [1]: 2.8 fold | PAMPA (10^−6 cm/s) [2]: 24 10^−6 cm/s | IDH1 R132C IC50 Fold improvement over 87 [3]: 12 fold

CCc1cccc(CC)c1-n1c(C=C(C)C)c(C(=O)N2CCNCC2C)cc(-c2nc(-c3ccc(Cl)cc3)cs2)c1=O (stereo not drawn) [Compound 100, 3-(4-(4-Chlorophenyl)thiazol-2-yl)-1-(2,6-diethylphenyl)-5-(2-methylpiperazine-1-carbonyl)-6-(2-methylprop-1-en-1-yl)pyridin-2(1H)-one]
PAMPA (10^−6 cm/s) [2]: 40 10^−6 cm/s

CCc1cccc(CC)c1-n1c(C=C(C)C)c(C(=O)N2CCNC3(CC3)C2)cc(-c2nc(-c3ccc(Cl)cc3)cs2)c1=O [Compound 103, 3-(4-(4-Chlorophenyl)thiazol-2-yl)-1-(2,6-diethylphenyl)-6-(2-methylprop-1-en-1-yl)-5-(4,7-diazaspiro[2.5]octane-7-carbonyl)pyridin-2(1H)-one]
PAMPA (10^−6 cm/s) [2]: 48 10^−6 cm/s

CCc1cccc(CC)c1-n1c(C=C(C)C)c(C(=O)N2CCNC(=O)C2)cc(-c2nc(-c3ccc(Cl)cc3)cs2)c1=O [Compound 105, 4-(5-(4-(4-Chlorophenyl)thiazol-2-yl)-1-(2,6-diethylphenyl)-2-(2-methylprop-1-en-1-yl)-6-oxo-1,6-dihydropyridine-3-carbonyl)piperazin-2-one]
PAMPA (10^−6 cm/s) [2]: 275 10^−6 cm/s

CCc1cccc(CC)c1-n1c(C=C(C)C)c(C(=O)N2CCNC(C(=O)O)C2)cc(-c2nc(-c3ccc(Cl)cc3)cs2)c1=O (stereo not drawn) [Compound 108, 4-(5-(4-(4-Chlorophenyl)thiazol-2-yl)-1-(2,6-diethylphenyl)-2-(2-methylprop-1-en-1-yl)-6-oxo-1,6-dihydropyridine-3-carbonyl)piperazine-2-carboxylic acid]
PAMPA (10^−6 cm/s) [2]: <1 10^−6 cm/s

CCc1cccc(CC)c1-n1c(C=C(C)C)c(C(=O)N2C[C@H]3CC[C@@H](C2)N3)cc(-c2nc(-c3ccc(Cl)cc3)cs2)c1=O [Compound 111, 5-((1R,5S)-3,8-Diazabicyclo[3.2.1]octane-3-carbonyl)-3-(4-(4-chlorophenyl)thiazol-2-yl)-1-(2,6-diethylphenyl)-6-(2-methylprop-1-en-1-yl)pyridin-2(1H)-one]
PAMPA (10^−6 cm/s) [2]: 89 10^−6 cm/s

CCc1cccc(CC)c1-n1c(C=C(C)C)c(C(=O)N2C3CCC2CNC3)cc(-c2nc(-c3ccc(Cl)cc3)cs2)c1=O [Compound 112, 5-(3,8-Diazabicyclo[3.2.1]octane-8-carbonyl)-3-(4-(4-chlorophenyl)thiazol-2-yl)-1-(2,6-diethylphenyl)-6-(2-methylprop-1-en-1-yl)pyridin-2(1H)-one]
PAMPA (10^−6 cm/s) ([2]; PAMPA, 30 min, 0.05 mM): 99 10^−6 cm/s

CC(C)=Cc1c(C(=O)N2CCNCC2)cc(-c2nc(-c3ccc(Cl)cc3)cs2)c(=O)n1-c1ccccc1 [Compound 113, 3-(4-(4-Chlorophenyl)thiazol-2-yl)-6-(2-methylprop-1-en-1-yl)-1-phenyl-5-(piperazine-1-carbonyl)pyridin-2(1H)-one]
fold drop in R132H potency ([1]; relative to 92): 7.5 fold | fold drop in R132C potency ([3]; relative to 92): 55 fold
